Assay results published in patent US20180036231A1, “PREVENTION OF AND RECOVERY FROM DRUG-INDUCED OTOTOXICITY” (Otonomy, Inc., priority 2011, published 2018).
Where two headings read alike, the source gives them in different places.

Key:
[1] = female, guinea pig, in vivo
Description: (§1) Female guinea pigs (Charles River) weighing 200-300 g, of approximately 6-8 weeks of age are used (N=4 per group). Prior to any procedure, animals are anesthetized using a combination of xylazine (10 mg/kg), ketamine (40 mg/kg) and acepromazine (0.75 mg/kg) for up to an hour via the intramuscular route. If needed, an intraoperative booster is administered intraperitoneally representing one-tenth of the original dose. Intratympanic injection—Each animal is positioned so that the head is tilted at an angle to favor injection towards the round window niche. Briefly, under visualization with an operating microscope, 50 μl of formulations comprising 0.2-6% dexamethasone and varying concentrations of P407 are administered to the animals. […] During the procedure and until recovery, animals are placed on a temperature controlled (40° C.) heating pad until consciousness is regained at which time they are returned to the vivarium.
(§2) The skin behind the ear of anesthetized guinea pigs is shaved and disinfected with povidone-iodine. An incision is then made behind the ear, and muscles are carefully retracted from over the bulla. A hole is drilled though the bulla using a dental burr so that the middle ear is exposed and accessible. The cochlea and the round window membrane are visualized under a stereo surgical microscope. A unique microhole is hand drilled through the bony shell of the cochlea (active capsule) adjacent to the round window. Perilymph (5 μl) is then collected using a microcapillary inserted into the cochlear scala tympani.

[2] = In vitro dissolution / mean dissolution time (MDT) of active agent from formulation; type: physicochemical
Description: The release profile of compositions suitable for methods described herein is optionally determined using dissolution techniques. In one embodiment, dissolution is performed at 37° C. in snapwells (6.5 mm diameter polycarbonate membrane with a pore size of 0.4 μm), 0.2 mL of a gel formulation described herein (e.g., a gel formulation of Example 1) is placed into snapwell and left to harden, then 0.5 mL buffer is placed into reservoir and shaken using a Labline orbit shaker at 70 rpm. Samples are taken every hour (0.1 mL withdrawn and replace with warm buffer). Samples are analyzed for active agent concentration by UV at 245 nm against an external calibration standard curve. Pluronic concentration is analyzed at 624 nm using the cobalt thiocyanate method. Relative rank-order of mean dissolution time (MDT) as a function of % P407 is determined. […] A non-linear relationship indicates release of active agent via a combination of diffusion and/or polymer gel degradation.
The MDT is inversely proportional to the release rate of an active agent from a composition described herein. Experimentally, the released active agent is optionally fitted to the Korsmeyer-Peppas equation: […]
where Q is the amount of active agent released at time t, Qα is the overall released amount of active agent, k is a release constant of the nth order, n is a dimensionless number related to the dissolution mechanism and b is the axis intercept, characterizing the initial burst release mechanism wherein n=1 characterizes an erosion controlled mechanism. The mean dissolution time (MDT) is the sum of different periods of time the drug molecules stay in the matrix before release, divided by the total number of molecules and is optionally calculated by: […]
In alternate embodiments, samples are analyzed using the method described by Li Xin-Yu paper [Acta Pharmaceutica Sinica 2008, 43(2):[…]] and Rank-order of mean dissolution time (MDT) as a function of % P407 is determined.

[3] = tested on: Cisplatin induced hearing loss; test: Cisplatin induced ototoxicity model, intratympanic injection, hearing by ABR; type: in vivo, guinea pig
Description: Intratympanic injection of a formulation of Example 1 is administered the day before cisplatin administration. The lower right quadrant of the abdomen is shaved 1 inch and swabbed with alcohol. A tiny (2-3 mm) incision is made on the abdomen and a 21 G blunt needle is used to penetrate the abdominal wall and into the intraperitoneal cavity. The needle will be connected to an infusion bag containing cisplatin for a slow infusion of 15-30 minutes in the range of 5-15 mg/kg. The incision site is closed using sterile staples. Animals will be placed on a warming pad during the infusion and while recovering. In addition, animals receive twice daily IP injection of saline solution for 3 days to prevent nephrotoxicity.
The hearing of the animal is tested by recording the brainstem activity in response to a known auditory stimulus. (ABR: Auditory Brainstem Response) at various time points. This measurement is performed under general anesthesia. During the procedure the animal is placed on a heating pad (40° C.) in a sound proof booth and an earphone is fitted loosely into one ear at a time. Three subcutaneous needle electrodes are used to measure the brainstem activity. […] The recording then takes place, where the audio stimulus is applied at different frequencies and hearing thresholds, and the brainstem activity recorded.

[4] = Inner ear (perilymph) pharmacokinetics after intratympanic administration in guinea pigs; conditions: for methylprednisolone peak level in the perilymph: intratympanic administration of hydrogel
Description: as §1, §2

[5] = tested on: noise induced hearing loss; test: Acoustic trauma / noise induced hearing loss model, intratympanic injection, hearing by ABR; type: in vivo, guinea pig; conditions: thermoreversible gel formulation, prophylactic intratympanic administration
Description: The hearing of the animal is tested by recording the brainstem activity in response to a known auditory stimulus. (ABR: Auditory Brainstem Response) at various time points. This measurement is performed under general anesthesia. During the procedure the animal is placed on a heating pad (40° C.) in a sound proof booth and an earphone is fitted loosely into one ear at a time. Three subcutaneous needle electrodes are used to measure the brainstem activity. One is placed behind the ear with the earphone, one on the vertex of the skull and one in the hindleg. The recording then takes place, where the audio stimulus is applied at different frequencies and hearing thresholds, and the brainstem activity recorded.
Following the procedure described in Example 9, a dexamethasone formulation is administered to guinea pigs prior to exposure to acoustic trauma. Hearing is evaluated as described in Example 8 above.
Following the procedure described in Example 9, a SP600125 formulation is administered to guinea pigs prior to exposure to acoustic trauma. Hearing is evaluated as described in Example 9 above.

[6] = intratympanic administration in hydrogel vehicle

CC(=O)OCC(=O)[C@@]1(O)[C@H](C)C[C@H]2[C@@H]3CCC4=CC(=O)C=C[C@]4(C)[C@@]3(F)[C@@H](O)C[C@@]21C [DA, Dexamethasone acetate]
inner ear exposure, dexamethasone in perilymph (AUC) [1]: 84000 to 359000 ng·h/mL | residence time in inner ear compartment (MRT) [1]: 17 to 82 h

C[C@@H]1C[C@H]2[C@@H]3CCC4=CC(=O)C=C[C@]4(C)[C@@]3(F)[C@@H](O)C[C@]2(C)[C@@]1(O)C(=O)COP(=O)([O-])[O-].[Na+].[Na+] [DSP]
MDT (mean dissolution time) ([2]; 17% Poloxamer 407 formulation): about 3 h | MDT (mean dissolution time) ([2]; aqueous solution): 0.3 h | auditory function versus saline control, acute cisplatin ototoxicity ([3]; 2.0% solution, single bilateral intratympanic injection one day before cisplatin 12 mg/kg, Day 7 post cisplatin): No significant differences | inner ear exposure, dexamethasone in perilymph (AUC) [4, 6]: 28000 to 57000 ng·h/mL | residence time in inner ear compartment (MRT) [4, 6]: 4 to 7 h

C[C@H]1C[C@@H]2[C@H]([C@@H](O)C[C@@]3(C)[C@H]2CC[C@]3(O)C(=O)CO)[C@@]2(C)C=CC(=O)C=C12 [MP, methylprednisolone]
methylprednisolone peak level in the perilymph [4]: 19.2 µg/mL | decline of perilymph levels after peak (in words) ([4]; intratympanic hydrogel): decreased slowly over 10 days

C[C@H]1C[C@@H]2[C@H]([C@@H](O)C[C@@]3(C)[C@H]2CC[C@]3(O)C(=O)COC(=O)CCC(=O)[O-])[C@@]2(C)C=CC(=O)C=C12.[Na+] [MPS]
MDT (mean dissolution time) ([2]; 17% Poloxamer 407 formulation): about 3 h | methylprednisolone peak level in the perilymph [4]: 6.5 µg/mL | perilymph level as fraction of the peak levels ([4]; within 3 days after intratympanic hydrogel): 0.8-1.0%

CC#C[C@]1(O)CC[C@H]2[C@@H]3CCC4=CC(=O)CCC4=C3[C@@H](c3ccc(N(C)C)cc3)C[C@@]21C [Mifepristone]
effect on dexamethasone gel protection against acute cisplatin ototoxicity ([3]; 6.0% mifepristone + 6.0% dexamethasone gel, intratympanic, one day before cisplatin 12 mg/kg): antagonizes dexamethasone gel protection

O=C1c2ccccc2-c2n[nH]c3cccc1c23 [SP600125, anthra[1,9-cd]pyrazol-6(2H)-one]
protection against acoustic trauma / prevention of hearing loss [5]: preventing hearing loss due to acoustic trauma

IGF-1: insulin-like growth factor, trophic agent/growth factor (PeproTech)
protection against acoustic trauma / prevention of hearing loss [5]: protects against acoustic trauma
